# Data as given in publication PMC4163382, “Symbiotic Plant Peptides Eliminate Candida albicans Both In Vitro and in an Epithelial Infection Model and Inhibit the Proliferation of Immortalized Human Cells” (BioMed Research International, 2014).
# Peptide text beside a SMILES is read from it.
# Experiments:
# C. albicans WO-1 cells [1] = assay: Localization of FITC-labeled peptides (confocal microscopy); type: cell-based, Candida albicans; conditions: 5 μg/mL (sublethal), 3 hours at 30°C in LSM
# Protocol: C. albicans WO-1 cells were labeled with 5 μg/mL of the FM4-64 membrane stain (Life Technologies) and 0.5 μg/mL of the DNA stain 4′,6-diamidino-2-phenylindole (DAPI, Sigma) for 15 minutes after 2 hours of peptide treatment. Images were captured with an Axio Observer Z.1 (Zeiss) fluorescent microscope. For studying the interaction of peptides with the fungus, an overnight C. albicans WO-1 culture was diluted in LSM and treated with FITC-conjugated peptides (at the sublethal concentration of 5 μg/mL) for 3 hours at 30°C. Cells were then centrifuged for 4 minutes at 600 rpm and the unbound peptides were removed by gentle pipetting of the supernatant and cells were resuspended in LSM. The cell suspension was dropped onto a coverslip and images were taken with an Olympus FluoView FV1000 confocal laser-scanning microscope.
# [2] = tested on: PK E6/E7 vaginal epithelial cells infected with C. albicans WO-1; assay: Vaginal epithelial cell - C. albicans coculture (RTCA); type: cell-based, human; conditions: PK E6/E7 + C. albicans WO-1, MOI of 5, 3 hours coculture then peptide 3 hours in PBgluc at both 25 and 50 μg/mL, RTCA at 40 hours
# Protocol: PK E6/E7 cells were seeded in 96-well E-plates as described above for RTCA. On the next day, an overnight culture of C. albicans WO-1 was diluted to OD = 1 and let to grow until OD = 1.5–2. The fungal cell suspension was diluted in antibiotic/antimycotic-free CKM and was added to the human cells with a multiplicity of infection (MOI) of 5. After 3 hours of coculture at 37°C, CKM medium was replaced with NCR peptides in PBgluc. After 3 hours of incubation, peptides were removed and 200 μL of fresh antibiotic/antimycotic-free CKM was added. Subsequent measurements were performed as described above.
# (§1) MTT assays and impedance measurements were performed in at least four technical parallels and two biological replicates; all the data are presented as mean ± standard deviation. Significance was calculated with Newman-Keuls post hoc test using the GraphPad Prism version 5 for Windows and a probability (P) value of less than 0.05 was considered significant.
# C. albicans strain WO-1 = type: cell-based, Candida albicans; conditions: C. albicans WO-1, LSM medium, 30°C, 24 hours of treatment, peptide 2.5 to 100 μg/mL, microscopy and absorbance at 600 nm; mean (±spread)
# Protocol: (§2) The C. albicans strains WO-1 and Sc5314 were maintained on YPD medium (1% (w/v) yeast extract, 2% (w/v) peptone, 2% (w/v) dextrose, 2% (w/v) agar; Beckton, Dickinson and Company). Hyphal growth was induced in complete keratinocyte medium (CKM; Life Technologies) without serum. The effect of the NCR peptides on free-living fungi was investigated either in PBgluc buffer (1 mM KH2PO4, 3 mM Na2HPO4 × 7H2O, 5% glucose, pH = 7.0) or in low-salt fungal medium (LSM) composed of 5 mM K2HPO4, 100 μM MgSO4, 10 μM FeCl, 0.2 μM CoCl2, 0.2 μM CuSO4, 4 μM Na2MoO4, 1 μM H3BO3, 0.2 μM KI, 1 μM ZnSO4, 0.2 μM MnSO4, 2% glucose, 0.2% asparagine, 40 μg/mL methionine, 4 μg/mL myo-inositol, 0.4 μg/mL biotin, 2 μg/mL thiamine-HCl, and 0.4 μg/mL pyridoxine-HCl.
# (§3) The antifungal activity of the NCR peptides against C. albicans strains and other Candida species was determined in vitro using 96-well flat bottom microtiter plates (Sarstedt). Fifty microliters of dilutions from each peptide (final concentrations in the assays ranged from 2.5 to 100 μg/mL) was added to 50 μL of 10^4 cells mL^−1 and 10^5 cells mL^−1 in LSM. The plates were incubated at 30°C and the peptide concentrations that prevented the germination of yeast cells were determined by microscopic analysis and measurement of absorbance at 600 nm with a microtiter plate reader (FLUOstar OPTIMA; BMG Labtech) after 24 and 48 hours. Minimal inhibitory concentration (MIC) was determined as the lowest concentration of the peptide at which there was no visible and measurable growth after 24 hours of incubation. To determine whether the antifungal effect was fungistatic or fungicidal, 10 μL from each treatment was dropped onto solid YPD plate after 3 and 24 hours. Plates were incubated at 30°C for 48 hours and developing colonies were observed. Minimal fungicidal concentration (MFC) was defined where no fungal growth could be observed.
# [3] = tested on: C. albicans strain Sc5314; type: cell-based, Candida albicans; conditions: C. albicans Sc5314, LSM medium, 30°C, 24 hours of treatment, peptide 2.5 to 100 μg/mL, microscopy and absorbance at 600 nm; mean (±spread)
# Protocol: as §2, §3
# C. albicans WO-1 cells [4] = assay: Cell permeability assay (calcein release); type: cell-based, Candida albicans; conditions: calcein-loaded C. albicans WO-1, 10 mM potassium phosphate buffer pH 7.0, peptide 50 μg/mL, fluorescence 485/530 nm
# Protocol: Cell permeability was monitored by the release of the intracellularly accumulated dye calcein. Overnight C. albicans WO-1 cells were washed twice with and resuspended in 10 mM potassium phosphate buffer (pH = 7.0) at a concentration of 10^7 cells mL^−1. Cells were loaded with acetomethoxy-calcein at a final concentration of 5 μM for 2 hours at room temperature. Cells were washed three times to remove the extracellular dye and then 100 μL of the suspension was transferred to FIA black 96-well plates. NCR peptides were then added at a concentration of 50 mg/L, and the release of calcein (formed by the cells' esterases) was measured by its fluorescence in a microtiter plate reader (FLUOstar OPTIMA) at excitation and emission wavelengths of 485 nm and 530 nm, respectively. Calcein efflux was calculated as previously reported.
# [5] = tested on: PK E6/E7 vaginal epithelial cells; assay: MTT assay, cytotoxicity on human epithelial cells; type: cell-based; conditions: peptide in PBgluc 3 hours at 37°C, 24 hours regeneration in CKM, MTT 4 hours, 560 nm
# Protocol: The immortalized human vaginal epithelial cell line PK E6/E7 [15] was cultured in serum-free CKM supplemented with 0.005 μg/mL recombinant epidermal growth factor, 50 μg/mL bovine pituitary extract, L-glutamine, and antibiotic/antimycotic solution (Life Technologies) in a CO2 thermostat at 37°C [16]. Cells at 60–70% confluence were used in subsequent experiments.
# MTT Assay. PK E6/E7 vaginal epithelial cells were seeded in the wells of a 96-well plate at a density of 1 × 10^4 cells per well in a final volume of 100 μL. CKM was then aspirated and 100 μL of the appropriate peptide diluted in PBgluc was added. After 3 hours of incubation at 37°C, the peptide solution was removed, and the cells were let to regenerate in CKM for 24 hours. Then 5 mg/mL 3-[4,5-dimethylthiazol-2-yl]-2,5-diphenyltetrazolium bromide (MTT) was added to each well and the plate was placed to 37°C for 4 hours. The amount of formazan formed by the activity of the mitochondrial succinate dehydrogenase of living cells was measured by using a microtiter plate reader (FLUOstar OPTIMA) at the wavelength of 560 nm.
# 10 μg/mL of primycin, a macrolide lactone antibiotic complex that rapidly kills PK cells, was used as a control for cytotoxicity in both assays.
# as §1
# [6] = tested on: C. albicans strains WO-1 and Sc 5314; assay: Microdilution antifungal assay, summary for C. albicans; type: cell-based, Candida albicans; conditions: strains WO-1 and Sc 5314, LSM medium, microdilution plate assay
# Protocol: as §3
# C. albicans WO-1 = type: cell-based, Candida albicans; conditions: 10 μL dropped onto solid YPD, 30°C for 48 hours, mean (±spread); for Minimal fungicidal concentration, 3 h: C. albicans WO-1, 3 hours of treatment; for Minimal fungicidal concentration, 24 h: C. albicans WO-1, 24 hours of treatment
# Protocol: as §3
Compound,Localization of FITC-labeled peptide in C. albicans cells (C. albicans WO-1 cells [1]),Prevention of C. albicans induced epithelial cell death [2],"Minimal inhibitory concentration, WO-1 (C. albicans strain WO-1)","Minimal inhibitory concentration, Sc5314 [3]",Calcein (dye) efflux (C. albicans WO-1 cells [4]),Concentration that provoked cell death / toxicity [5] [µg/mL],Anticandidal activity against the yeast form of growing C. albicans [6],"Minimal fungicidal concentration, 3 h (C. albicans WO-1)","Minimal fungicidal concentration, 24 h (C. albicans WO-1)"
"SFLGTFISSCKRDKDCPKLYGANFRCRKGTCVPPI [NCR035, chemically synthesized mature nodule-specific cysteine-rich (NCR) peptide of Medicago truncatula]",did not label the C. albicans cells,,,,,,,,
"RLNTTFRPLNFKMLRFWGQNRNIMKHRGQKVHFSLILSDCKTNKDCPKLRRANVRCRKSYCVPI [NCR335, cationic chemically synthesized mature NCR peptide of Medicago truncatula]",,could be prevented,11 (±1) μg/mL,12.5 (±2.5) μg/mL,43.12 ± 13.05%,> 25,exhibited anticandidal activity,7 (±1) μg/mL,8 (±2) μg/mL
EDIGHIKYCGIVDDCYKSKKPLFKIWKCVENVCVLWYK [NCR169],,unable to prevent vaginal epithelial cell death,,,no calcein release,100,,,
"VNDCIRIHCKDDFDCIENRLQVGCRLQREKPRCVNLVCRCLRR [NCR055, chemically synthesized mature nodule-specific cysteine-rich (NCR) peptide of Medicago truncatula]",,,50 (±4) μg/mL,50 (±3) μg/mL,,,,,
CC[C@H](C)[C@H](NC(=O)[C@H](CS)NC(=O)CNC(=O)[C@H](CC(N)=O)NC(=O)[C@@H](N)CCCNC(=N)N)C(=O)N[C@H](C(=O)N[C@@H](CC(=O)O)C(=O)N1CCC[C@H]1C(=O)N[C@@H](CCCNC(=N)N)C(=O)N[C@@H](CS)C(=O)N1CCC[C@H]1C(=O)N[C@@H](Cc1ccc(O)cc1)C(=O)N[C@@H](CCC(N)=O)C(=O)N[C@@H](CCC(N)=O)C(=O)N[C@@H](CS)C(=O)N[C@@H](CCCNC(=N)N)C(=O)N[C@@H](CCCNC(=N)N)C(=O)N1CCC[C@H]1C(=O)N[C@@H](CC(C)C)C(=O)N[C@@H](Cc1ccc(O)cc1)C(=O)N[C@@H](CS)C(=O)N[C@@H](CCCNC(=N)N)C(=O)N[C@@H](CCCNC(=N)N)C(=O)N[C@@H](CCCNC(=N)N)C(=O)O)C(C)C [NCR247] (H-RNGCIVDPRCPYQQCRRPLYCRRR-OH; N-terminus and C-terminus assumed),,could be prevented,14 (±9) μg/mL,25 (±2) μg/mL,29.65 ± 12.6%,100,exhibited anticandidal activity,14 (±10) μg/mL,16.5 (±13) μg/mL
CSCC[C@H](NC(=O)[C@H](CCCCN)NC(=O)[C@H](CCCNC(=N)N)NC(=O)[C@@H]1CCCN1C(=O)[C@H](CS)NC(=O)[C@H](Cc1c[nH]cn1)NC(=O)CNC(=O)[C@@H](NC(=O)[C@H](Cc1c[nH]cn1)NC(=O)[C@H](CCCCN)NC(=O)[C@H](CS)NC(=O)CNC(=O)[C@H](CC(N)=O)NC(=O)[C@H](CCCCN)NC(=O)[C@@H](N)CCSC)[C@@H](C)O)C(=O)N[C@@H](CS)C(=O)NCC(=O)N[C@@H](C)C(=O)N[C@@H](CCCCN)C(=O)N[C@H](C(=O)N[C@H](C(=O)N[C@@H](CCCCN)C(=O)N[C@@H](CS)C(=O)N[C@@H](CCCNC(=N)N)C(=O)N[C@@H](CC(N)=O)C(=O)N[C@@H](CC(N)=O)C(=O)N[C@@H](CCCCN)C(=O)N[C@@H](CS)C(=O)N[C@@H](CCC(N)=O)C(=O)N[C@@H](CS)C(=O)N[C@H](C(=O)N[C@@H](CCC(N)=O)C(=O)N[C@@H](CC(C)C)C(=O)O)C(C)C)[C@@H](C)O)[C@@H](C)O [NCR192] (H-MKNGCKHTGHCPRKMCGAKTTKCRNNKCQCVQL-OH; N-terminus and C-terminus assumed),,could be prevented,,,22.82 ± 11.16%,100,exhibited anticandidal activity,,
